# Source: the supplement of paper PMC10307832
# Experiments:
# Assay in all cases: relative viability (nuclei count vs DMSO), 5 days (fraction); higher = more cells survive
# [1] = compound: CC(C)C[C@@H](C(=O)N[C@H](C(=O)OC1CCCC1)c1ccccc1)[C@H](O)C(=O)NO [Tosedostat]
# Method in brief: (§1)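 Only plates meeting two conditions passed: control CV below 25% and at least one doubling. Lung cancer cell lines, kept overnight at 37 °C in 1536-well plates, were pinned with five library-drug doses (not always all listed) √10 apart on vehicle-anchored plates and grown 5 days without medium change. A one-step fix, permeabilisation and Hoechst stain preceded 4× imaging and MetaXpress nuclear counting. Viability equals treated-well nuclei divided by vehicle-well nuclei, as the median over plates.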
# [2] = compound: CC1=NN=C(O1)C2=NN=C(C=C2)N3CCC(CC3)OC4=C(C=CC(=C4)F)Cl
# Method in brief: as §1
# [3] = compound: CC(C)C[C@@H](C(=O)N[C@H](C(=O)OC1CCCC1)c1ccccc1)[C@H](O)C(=O)NO [Tosedostat] + COc1cc2c(Oc3ccc(NC(=O)C4(C(=O)Nc5ccc(F)cc5)CC4)cc3F)ccnc2cc1OCCCN1CCOCC1 [Foretinib] (partner 0.25 µM)
# Method in brief: (§2)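 Relative viability was taken as the ratio of nuclei in treated wells to nuclei in vehicle wells. Lung cancer cell lines in 1536-well plates received compounds by pin tool one day after seeding, either one drug alone or a fixed anchor-drug dose plus five library-drug doses (not always all listed) in √10 steps. Nuclei were counted on 4× images after 5 days of treatment, and values are medians of duplicate plates.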
# [4] = compound: CC(C)C[C@@H](C(=O)N[C@H](C(=O)OC1CCCC1)c1ccccc1)[C@H](O)C(=O)NO [Tosedostat] + CS(=O)(=O)CCNCc1ccc(-c2ccc3ncnc(Nc4ccc(OCc5cccc(F)c5)c(Cl)c4)c3c2)o1 [Lapatinib] (partner 2 µM)
# Method in brief: as §2
cell line,measurement,setting,value
UMC-11,relative viability,[1]; 0.02 µM,1.1
same,relative viability,[1]; 0.06325 µM,0.994
same,relative viability,[1]; 0.2 µM,1.03
same,relative viability,[1]; 0.6325 µM,1.04
same,relative viability,[1]; 2 µM,1.05
same,relative viability,[2]; 0.253 µM,0.634
same,relative viability,[2]; 0.8 µM,0.641
same,relative viability,[2]; 2.53 µM,0.76
same,relative viability,[2]; 8 µM,0.594
same,relative viability,[3]; first compound 0.02 µM,1.22
same,relative viability,[3]; first compound 0.06325 µM,0.969
same,relative viability,[3]; first compound 0.2 µM,1.02
same,relative viability,[3]; first compound 0.6325 µM,1.09
same,relative viability,[3]; first compound 2 µM,1.03
same,relative viability,[4]; first compound 0.02 µM,1.05
same,relative viability,[4]; first compound 0.06325 µM,1.01
same,relative viability,[4]; first compound 0.2 µM,0.957
same,relative viability,[4]; first compound 0.6325 µM,1.19
same,relative viability,[4]; first compound 2 µM,0.96
